The values below come from patent US20150018271A1, “HSP60 DERIVED PEPTIDES AND PEPTIDE ANALOGS FOR SUPPRESSION AND TREATMENT OF NON-AUTOIMMUNE DIABETES” (Yeda Research and Development Co. Ltd., priority 2012, published 2015).

Series [1] concerns male C57BL/N mice on high fat (60%) diet. Particulars: any of the DiaPep277 treatments (100-500 μg in intralipid SC or 100 μg in PBS IP), about 16 weeks, FIG. 1.
From the text: Mice genetically prone to T2D (dp/dp or ob/ob strains, resistant to leptin), and/or healthy C57BL/6 mice induced to develop T2D by a high fat diet are used in vivo to assess the activity of hsp60 peptides and analogs in protecting against or treatment of T2D. […] In the fat diet model, the diet (for example TD.0811 of Harlan™, or D12492 of Research Diets Inc. containing 21% and 34.9% fat respectively) is initiated after weaning and the mice express T2D by 10 weeks of age.
In a typical trial, groups of T2D mice (10 mice per group) are treated early in the course of the disease (about 7-10 weeks of age). […]
Treatment with DiaPep277 or other hsp60 peptides or analogs, is performed once or several times a week with doses of 100-500 micrograms injected subcutaneously (with adjuvant such as intralipid) or IP, IM or IV (without adjuvant). Glucose tolerance, fasting glucose and fasting insulin levels are measured 1-2 months after onset of treatment.
In one specific in-vivo trial, 70 male C57BL/N mice were weighed, measured for blood glucose levels and divided into seven groups, 10 mice/group as following: […]
Animals of groups 2-7 were fed with 60% fat diet of from age of 5 weeks until termination of the trial. […] After about 16 weeks the trial was terminated and Hemoglobin A1C and C-peptide levels were measured using methods known in the art.
A further series relates to NOD mice. As to conditions: cited from earlier work.

Ends that are not written are not given here.

Take VLGGGVALLRVIPALDSLTPANED [DiaPep277]: the “animal appetite and weight” value in series [1] is given as “did not change”.
With “p277: specific peptide of human hsp60, one of the immunodominant epitopes in autoimmune diabetes; native cysteines at positions 6 and 11 (VLGGGCALLRCIPALDSLTPANED; p277 peptide; UniProt P10809 437-460, looked up, fragment)”, in the series on NOD mice (after treatment), the gamma interferon secretion result is “decrease”; the “p277-specific IL-4 and IL-10 secretion” value is reported as “increase”; the “p277-specific IgG1 antibodies” value is reported as “induced”. Also, in the series on NOD mice (subcutaneous administration), the “T-cell reactivity to beta cell antigens” value was “down-regulated” and the development of diabetes entry is “prevented the development of diabetes”.
